In patent publication US8012466B2, “Immunogenic compositions for activating γδ T cells” (priority 2008, dated 2011):
“Also recorded” adds a separate entry of the source.

Columns and labels:
Vγ9/Vδ2 = settings: cited from earlier work
Vγ2Vδ2 T cells [1] = assay: In vitro HMBPP response of rhesus monkey PBMC; assay type: cell-based; settings: PBMC stimulated with 100 nM HMBPP
Excerpt: FIG. 7. Characteristics of rhesus monkey Vγ2Vδ2 T cells. (A). Large in vitro HMBPP responses by Vγ2Vδ2 T cells from most rhesus monkeys. […] (B). Uniform memory subset distribution of rhesus monkey Vγ2Vδ2 T cells. PBMC from 22 monkeys were stained for Vδ2, […], and […]. Vδ2^+ cells were divided in 4 groups based on their expression of CD28 and CD27.
Memory subset distribution and HMBPP response of rhesus monkey Vγ2Vδ2 T cells—In preparation for in vivo immunization of rhesus monkey, we screened 33 monkeys for their ability to respond to HMBPP in vitro, γδ T cells levels, V gene expression, and memory subset distribution. […] Like human Vγ2Vδ2 T cells, monkey Vγ2Vδ2 T cells also could be divided into 4 subsets based on expression of CD28 and CD27 (TEarly=central memory=CD28^+27^+, TEarly CD27−=CD28^+27^−, TIntermediate=CD28^−27^+, and TLate CD45RA+=CD28^−27^−). However, unlike human donors, there were very few monkeys with a predominance of the TLate RA subset. Moreover, whereas Vγ2Vδ2 T cells constituted 73% of human adult γδ T cells, Vγ2Vδ2 T cells constituted only 29% of monkey γδ T cells consistent with our earlier study. […]

Vγ2Vδ2 T cells [2] = assay: Immunization of rhesus monkeys with zoledronate and HMBPP plus sc IL-2; assay type: in vivo, rhesus monkey; settings: for in vitro reactivity of PBMC to HMBPP after immunization: PBMC before and ~2 weeks after each immunization, cultured with HMBPP 9 days; for outcome of repeated immunization in vivo: zoledronate 0.06 mg/kg sc or iv twice, then HMBPP 70 mg/kg iv, sc IL-2
[3] = tested on: Vγ2Vδ2 TCR transfectant, DBS43; assay: IL-2 release by Vγ2Vδ2 TCR transfectant DBS43; assay type: cell-based; settings: unpublished data

SMILES	return of expansion to baseline (Vγ9/Vδ2; cynomolgus monkey, in vivo)	expansion of Vγ9/Vδ2 (Vγ9/Vδ2; first and successive infusions)	monkeys with expansion to >40% (Vγ2Vδ2 T cells [1])	in vitro reactivity of PBMC to HMBPP after immunization (Vγ2Vδ2 T cells [2])	outcome of repeated immunization in vivo (Vγ2Vδ2 T cells [2])	IL-2 release [3]
CC(O)(CBr)CCOP(=O)(O)OP(=O)(O)O (centres unmarked) [BrHPP, bromohydrin pyrophosphate]	10 to 15 days	transiently expand; also recorded: less vigorous expansions				
C/C(=C\COP(=O)(O)OP(=O)(O)O)CO [HMBPP, (E)-4-hydroxy-3-methyl-but-2-enyl pyrophosphate]			32/33	leads to loss of in vitro reactivity to HMBPP	leads to immune exhaustion	release IL-2 in response to HMBPP
O=P(O)(O)C(O)(Cn1ccnc1)P(=O)(O)O [zoledronate]				leads to loss of in vitro reactivity to HMBPP	loss of in vivo (FIG. 8) and in vitro proliferation by Vγ2Vδ2 T cells to antigenic stimulation; also recorded: leads to immune exhaustion	
